Earlier results as cited in US20030021750A1, “Novel functional agents for magnetic resonance imaging” (priority 2001, published 2003).

Conditions: thermodynamic stability of the Gd3+ chelate; background statement

SMILES | stability constant (K) / formation constant, logK
O=C([O-])CN(CCN(CC(=O)[O-])CC(=O)[O-])CCN(CC(=O)[O-])CC(=O)[O-].[Gd+3] [Gd(DTPA)^2−] | 22.4
O=C([O-])CN1CCN(CC(=O)[O-])CCN(CC(=O)[O-])CCN(CC(=O)[O-])CC1.[Gd+3] [Gd-DOTA] | 28.5
